{
  "source": "paper PMC10552397",
  "about": "(Cell Communication and Signaling : CCS, 2023)",
  "key": {"HeLa wt cells [1]": {"system": "HeLa wt cells", "assay": "Transmission electron microscopy of Golgi apparatus, HeLa wt", "format": "cell-based", "settings": "24 h", "experimental": "HeLa wt and HeLa GRASP55 KO cells were seeded into 10 cm dishes. […] After treatment, cells were washed with Dulbecco´s phosphate-buffered saline (DPBS, Thermo Fisher Scientific, Waltham, MA, USA, #14,190,250) and then fixed using 2.5% glutaraldehyde and 4% paraformaldehyde in 0.1 M sodium cacodylate, pH 7.4 overnight at 4 °C. Then, cells were harvested with a cell scraper and centrifuged at 4,000 × g for 5 min. Cell pellets were washed twice with 0.1 M sodium cacodylate buffer, pH 7.2, then heated to 40 °C and embedded into 3% low melting agarose. The agarose was dissolved at 40 °C in a water bath and after aspiration of the supernatant a volume of approximately 10 µL was left, which was resuspended in agarose. After centrifugation at approximately 4,000 x g for 2 min, the samples were covered with 1% OsO4 in 0.1 M sodium cacodylate buffer for 60 min at RT. After washing two times with sodium cacodylate buffer for 10 min and twice with 70% EtOH for 15 min at RT, block contrast was applied using 1% uranyl acetate/1% phosphorotungstic acid in 70% EtOH (freshly prepared and filtered) for 1 h at RT. The samples were dehydrated in a graded ethanol series (90% EtOH, 96% EtOH, 100% EtOH) and embedded in SPURR epoxy resin (Serva, Heidelberg, Germany, #21,050). After polymerization at 70 °C for 24 h, 70 nm ultrathin sections were cut using an Ultracut EM UC7 (Leica, Wetzlar, Germany). […]"}, "HeLa wt cells [2]": {"system": "HeLa wt cells", "assay": "MTT cell viability assay, HeLa wt", "format": "cell-based", "settings": "Homo sapiens", "description": "Cell viability was measured using the MTT (3-(4,5-dimethylthiazol-2-yl)-2,5-diphenyltetrazolium bromide) assay. HeLa cells were seeded in 96-well plates with a density of 5*10^3 cells/well. […] After the incubation time, 20 µL of a 5 mg/mL MTT stock solution (ROTH, Karlsruhe, Germany, #4022.3) were added to the cells and they were incubated at 37 °C and 5% CO2 in a humidified atmosphere for 30 min. Upon removal of the MTT-containing medium 100 µL DMSO per well were added for extraction of the formazan. Absorbance was measured at 570 nm and 650 nm (reference) with a microplate reader (SynergyMx, BioTek, Winooski, VT, USA). After subtraction of the reference value, the mean of the absorbance of the solvent control was set as 100% and the relative viability was calculated for each sample.\nAll IC50 values were calculated using GraphPad Prism 7.01."}, "GRASP55": {"biological_target": "GRASP55 (Homo sapiens, UniProt Q9H8Y8)", "assay": "CETSA (immunoblot quantification of non-denatured GRASP55)", "format": "binding", "design": "endogenous in cells; host or cells: HeLa wt cells", "settings": "100 nM, 6 h, HeLa wt, vs DMSO", "experimental": "Adherent cells were washed in the dish once with DPBS and harvested by Trypsin–EDTA (0.25%, Thermo Fisher Scientific, Waltham, MA, USA, #25,200,056) treatment. After addition of 35 mL DPBS, the cells were pelleted by centrifugation (300 rcf, 5 min, 4 °C), and washed twice by re-suspending and pelleting using 45 mL and 1 mL DPBS, respectively, to remove excess trypsin and for transfer into pre-weighed 2 mL Eppendorf tubes to determine the cell pellet wet weights as quality check after centrifugation (300 rcf, 5 min, 4 °C) and complete removal of the supernatant. […]\nAfter temperature treatment, samples were supplemented with lysis buffer (final concentrations: 0.36 U/µL benzonase, 1.5 mM MgCl2, 1 mM Na3VO4, 10 mM NaF, 2.5 mM Na4P2O7, 0.8% w/v NP-40) for 1 h on ice. […] The total protein concentration of the resulting cell extracts containing the fraction of soluble, non-denatured proteins was determined (Pierce 660 nm Protein Assay, BSA as standard). […] The two (37 °C or 50 °C) x ten (concentrations) x three (replicates) = 60 TPP-CCR samples and two (treatment and control) x ten (temperatures) x three (replicates) = 60 TPP-TR samples were analyzed by LC–MS/MS. GRASP55 was additionally quantified from the TPP-TR samples by immunoblotting as described in the respective section. […]"}},
  "note": "Where two headings read alike, the source gives them in different places.",
  "data": [
    {"smiles": "CCCCCC1=C/C(=C/c2[nH]c(-c3ccc[nH]3)cc2OC)N=C1C", "note": "[Prodigiosin, prodigiosin]", "values": [
      {"measurement": "Golgi apparatus morphology (TEM)", "setting": "HeLa wt cells [1]; 10 nM", "value": "cisternae number and length decreased and cisternae were more voluminous"},
      {"measurement": "Golgi apparatus morphology (TEM)", "setting": "HeLa wt cells [1]; 100 nM", "value": "distinct swelling of the Golgi apparatus"},
      {"measurement": "IC50", "setting": "HeLa wt cells [2]; 24 h, Fig. 1B, read-out: IC50 (24 h)", "value": 685, "unit": "nM"},
      {"measurement": "IC50", "setting": "HeLa wt cells [2]; 24 h, Fig. 5C (independent of Fig. 1B), read-out: IC50 value wt", "value": 547, "unit": "nM"},
      {"measurement": "IC50", "setting": "HeLa wt cells [2]; 72 h, Fig. 1B, read-out: IC50 (72 h)", "value": 77, "unit": "nM"},
      {"measurement": "IC50", "setting": "HeLa wt cells [2]; 72 h, Fig. 5C (independent of Fig. 1B), read-out: IC50 value wt", "value": 63.9, "unit": "nM"},
      {"measurement": "dif GRASP55 (CETSA), melting point difference", "setting": "GRASP55", "value": 4.5}
    ]}
  ]
}
